From paper PMC9423655, “Huntington’s disease phenotypes are improved via mTORC1 modulation by small molecule therapy” (PLoS ONE, 2022)

Assays:
mTORC1 [1] = tested on: mTORC1; design: method as in PMID 30858438, PMID 30990795; conditions: cited from earlier work
medial prefrontal cortex = tested on: medial prefrontal cortex; design: method as in PMID 30990795; conditions: cited from earlier work
Sestrin2 = tested on: Sestrin2; design: method as in PMID 30858438, PMID 30990795; conditions: cited from earlier work
[2] = molecular target: T1, Sestrin2/GATOR2 interaction (Homo sapiens, UniProt P58004); assay: Intact cells-based Sestrin2/GATOR2 protein-protein interaction assay, Flag-WDR24 293T cells; assay type: cell-based; conditions: leucine-starved flag-WDR24 HEK-293T cells, 10 minutes, S1C Fig
T1 construct: endogenous in cells; host or cells: Flag-WDR24 293T (HEK293T) cells
T1 sequence (P58004 1-480): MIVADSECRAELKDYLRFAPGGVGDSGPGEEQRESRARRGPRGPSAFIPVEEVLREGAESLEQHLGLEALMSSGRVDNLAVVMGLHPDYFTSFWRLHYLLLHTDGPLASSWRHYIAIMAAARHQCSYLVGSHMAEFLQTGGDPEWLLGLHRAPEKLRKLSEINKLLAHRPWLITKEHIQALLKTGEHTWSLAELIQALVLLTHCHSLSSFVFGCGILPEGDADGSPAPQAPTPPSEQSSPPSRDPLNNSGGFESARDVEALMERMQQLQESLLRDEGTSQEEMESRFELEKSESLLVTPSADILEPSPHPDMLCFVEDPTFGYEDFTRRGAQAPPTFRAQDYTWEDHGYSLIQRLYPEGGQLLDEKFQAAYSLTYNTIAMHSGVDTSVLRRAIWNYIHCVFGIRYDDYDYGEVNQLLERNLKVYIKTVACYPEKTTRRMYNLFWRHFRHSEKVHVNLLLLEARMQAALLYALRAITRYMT
Protocol: Flag-WDR24 293T cells were washed and placed in leucine-free DMEM supplemented 10% dFBS for 50 minutes followed by treatment with NV-5297, leucine or vehicle for 10 minutes. Cells were rinsed once with ice-cold PBS and immediately lysed with Triton lysis buffer (1% Triton, 10 mM β-glycerol phosphate, 10 mM pyrophosphate, 40 mM Hepes pH 7.4, 2.5 mM MgCl2 and 1 tablet of EDTA-free protease inhibitor). The cell lysates were cleared by centrifugation at 13,200 rpm at 4°C in a microcentrifuge for 10 minutes. Prior to immunoprecipitations, an aliquot of lysate was taken for SDS-PAGE and immunoblotting for pS6K1, S6K1 and tubulin. For anti-FLAG immunoprecipitations, the FLAG-M2 affinity gel was washed 3 times with Triton lysis buffer, and 30 μl of a 50/50 slurry of the FLAG-M2 affinity gel was then added to approximately 2 mg of clarified cell lysates and incubated with rotation for 3 hours at 4°C. Following immunoprecipitation, the beads were washed one time with Triton wash buffer containing 500 mM NaCl. Immunoprecipitated proteins were denatured, resolved by SDS-PAGE, and analyzed by immunoblotting.
Next, Sestrin2/GATOR2 protein-protein interactions in response to NV-5297 were measured using cell-free assays and in vitro. For this, HEK293T cells stably expressing flag-WDR24, a component of GATOR2 [44], were used. The cell-free assays utilized Sestrin2/GATOR2 complexes immunoprecipitated from amino acid-starved cells with an anti-flag antibody.

SesnTKO HEK293T cells = assay: mTORC1 activation (p70S6K1) in HEK293T cells null for all three Sestrin isoforms; assay type: cell-based; conditions: leucine-starved 50 minutes, treatment 10 minutes
Protocol: (§1) All cell lines were cultured in DMEM (Corning, #MT10013CV) supplemented with 10% heat-inactivated FBS (Gibco, #16140–071). All cell lines were maintained at 37°C and 5% CO2. For amino acid starvation, cells were rinsed once with and incubated Amino acid-free RPMI (US Biologicals, #R8999-04A) supplemented with 10% dialyzed FBS (Gibco, #26400044) for 50 min followed by treatment with NV-5297, leucine, or vehicle for 10 minutes. For leucine starvation, cells were rinsed once with and incubated in leucine-free DMEM (AthenaES, #0420) supplemented with 10% dialyzed FBS (Gibco, #26400044) for 50 minuted followed by treatment with NV-5297, leucine, or vehicle for 10 minutes.
(§2) To ascertain if Sestrins and the GATOR pathway are required for NV-5297 activity, we tested mTORC1 activation in cells null for either all three Sestrin isoforms [SesnTKO] or for the GATOR1 component Npr13 [Npr13KO] [44]. […]
(§3) (A) Activation of the mTORC1 pathway by NV-5297. […] Representative immunoblots of ^T389pS6K1 and quantification of the normalized level of ^T389pS6K1 from 8 independent experiments (F) show TORC1 activity in unedited HEK-293T cells, HEK-293T cells deficient for Sestrin 1 (Sesn1), 2 (Sesn2) and 3 (Sesn3) (D) or HEK-293T cells deficient for the GATOR1 component Nprl3 (E) after 50 minutes leucine starvation followed by the addition of vehicle, NV-5297 or leucine for 10 minutes. […]

mTORC1 [3] = assay: mTORC1 activation (pS6K1 immunoblot) in leucine-starved HEK293T cells; assay type: cell-based; conditions: HEK293T cells starved of leucine 50 minutes, treatment 10 minutes
Protocol: as §1
as §3, with “NV-5297. […] (B) NV-5297 disrupts Sestrin2/GATOR2 in the in vitro Sesn2/WDR24 protein-protein interaction assay in a dose-dependent manner.” for “NV-5297.”

Npr13KO HEK293T cells = assay: mTORC1 activation (p70S6K1) in HEK293T cells null for GATOR1 component Nprl3; assay type: cell-based; conditions: leucine-starved 50 minutes, treatment 10 minutes
Protocol: as §1, §2, §3

p70S6K1 (T389 pS6K1) level [2] | Structure (SMILES) | mTORC1 activation in peripheral tissues and CNS (mTORC1 [1]) | synaptic formation in the medial prefrontal cortex (medial prefrontal cortex) | Sestrin2 binding (Sestrin2) | p70S6K1 levels (SesnTKO HEK293T cells) | mTORC1 activation measured by phosphorylated S6K1 (pS6K1 / p70S6K1) (mTORC1 [3]) | p70S6K1 levels (Npr13KO HEK293T cells)
 | CC(C)(C[C@H](N)C(=O)O)C(F)F [NV-5138] | transiently activates mTORC1 | improved synaptic formation | binds Sestrin2 |  |  | 
Dose-dependent activation of mTORC1 | CC(C)C[C@H](N)C(=O)O [leucine, reference compound] |  |  |  | remained unchanged | activates mTORC1 in leucine-starved HEK293T cells in a dose-dependent manner | remained unchanged
